Laboratory results from US20110281947A1, “METHODS OF ADMINISTERING DICLOFENAC COMPOSITIONS FOR TREATING PHOTODAMAGED SKIN” (priority 2004, published 2011).

Experiment: Topical application of NSAID with hyaluronic acid to patients: side effects and pain relief
Assay type: in vivo, human
Conditions: for relief of pain: patients using combination with hyaluronic acid (sodium hyaluronate)
Description: (This may be in part because of the clearing of the hyaluronic acid through the lymphatic system from the site).

Row | SMILES | major toxic side effects (gastro-intestinal distress, neurological abnormalities, depression) (dissolved in n-methyl glucamine, applied topically with hyaluronic acid, even at elevated amounts) | relief of pain
1 | COc1ccc2c(c1)c(CC(=O)O)c(C)n2C(=O)c1ccc(Cl)cc1 [indomethacin] | no major toxic side effects occur | dramatic relief of pain immediately
2 | O=C(O)Cc1ccccc1Nc1c(Cl)cccc1Cl [diclofenac, Ortho-((2,6-dichlorophenyl)amino)phenylacetic acid] |  | dramatic relief of pain immediately
